No end group written: not given here.
These sequences were tested on E. coli ATCC 25922. Conditions: ATCC 25922, 24 h.
Format: cell-based, Escherichia coli
Protocol: The term “MIC” refers to minimal inhibitory concentration and will be defined as the lowest concentration of either soluble peptide or peptide immobilized on a polymer that results in total kill of bacteria.
The minimal inhibitory concentration (MIC) for the peptides was determined in sterile microtiter plates in a final volume of 200 μL using Trypticase Soy Broth (TSB; Difco Laboratories, Detroit, Mich.) as the growth medium. Serial two-fold dilutions of the peptide stock were made in the plate wells such that concentrations ranged from 512 to 2 μg/mL in a volume of 100 μL. Each well was then inoculated with 100 μL of a dilute suspension of bacteria in TSB yielding a final concentration of 1×10^4 bacteria/mL. The final peptide concentrations ranged from […]. The assay plates were incubated at 37° C. for 24 hours inside a Bioscreen C microtitre plate reader (Thermo Labsystems; Vantaa, Finland). Optical Density (OD) of the medium at 600 nm was recorded every 20 minutes to monitor cell growth. The lowest concentration of peptide preventing bacterial growth during the 24 hr period was defined as the MIC.

Sequence	MIC
LKALKALKALKALKR [SEQ ID NO: 1, LKALKALKALKALKR]	64 µg/mL
FKAFKAFKAFKAFKA [SEQ ID NO: 4, FKAFKAFKAFKAFKA]	128 µg/mL
FKAFKAFKAFKAFKAFKA [SEQ ID NO: 5, FKAFKAFKAFKAFKAFKA]	32 µg/mL
LKVLKVLKVLKVLKV [SEQ ID NO: 2, LKVLKVLKVLKVLKV]	32 µg/mL
LKVLKVLKVLKVLKVLKV [SEQ ID NO: 3, LKVLKVLKVLKVLKVLKV]	4 µg/mL
